From patent publication US20190350918A1, “PPARy AGONIST FOR TREATMENT OF HUNTINGTON'S DISEASE” (Coherus Biosciences, Inc., priority 2017, published 2019)

Assays:
adiponectin [1] = assay: 24-week randomized, double-blind, placebo-controlled study in type 2 diabetes subjects: serum adiponectin levels; format: in vivo, human
Description: A randomized, double-blind, placebo-controlled, 24-week study was conducted in which adiponectin levels were measured. […] 367 subjects with type 2 diabetes (TD2)—a disease in which patient adiponectin levels are reduced—were randomly assigned to receive either 0.5, 1, 2 or 3 milligrams (“mg”) of INT131 besylate, 45 mg of pioglitazone or placebo daily for 24 weeks. To measure adiponectin levels blood was drawn at Weeks 0, 2, 6, 12 and 24. At baseline (Week 0) mean adiponectin levels were 1.94 micrograms per milliliter (“μg/mL”). The mean adiponectin levels at baseline and Week 24, and the mean change in adiponectin levels from baseline (Week 0) to Week 24 are disclosed in Table 1, below. The standard deviation for samples tested in each group is listed in (parenthesis). Mean baseline adiponectin values were similar for the treatment groups.

HbA1c [2] = assay: 24-week study in type 2 diabetes subjects: HbA1c levels; format: in vivo, human
adiponectin [3] = assay: 14-day study in healthy subjects: serum adiponectin levels; format: in vivo, human
Description: A study was conducted to determine the effect of INT131 on serum adiponectin levels. Thirty healthy subjects were randomly selected to receive either placebo, 0.1 mg INT131, 1 mg INT131 or 4 mg INT131 daily for 14 days. To measure adiponectin levels blood was drawn at Days 1, 4, 8 and 14.

R6/2 Huntington's mice = assay: R6/2 Huntington's mice: Huntington disease signs and symptoms; format: in vivo, mouse; conditions: R6/2 mice; 1 mg/kg, 3 mg/kg, and 6 mg/kg
Description: INT-131 is evaluated in R6/2 Huntington's mice. R6/2 mice express mutant human exon 1 of the HTT gene. R6/2 mice develop Huntington phenotypes, which progress over time. These mice display motor and cognitive deficits, cortical cellular degeneration and striatal cellular morphological changes, as well as alterations in cortical and striatal synaptic transmission. In particular, R6/2 mice develop a loss of coordination, tremors, hypokinesis, abnormal gait, neuropathy, and premature death. After mice develop Huntington symptoms, the mice are administered INT-131 or a placebo at a regular dosing interval over a period of time. INT-131 doses include 1 mg/kg, 3 mg/kg, and 6 mg/kg. Huntington disease signs and symptoms are evaluated in each group over the period of time. After mice develop Huntington symptoms, the mice are administered INT-131 or another therapy for treating Huntington's disease at a regular dosing interval over a period of time. INT-131 doses include 1 mg/kg, 3 mg/kg, and 6 mg/kg. Other therapies include those approved for treatment and those in development for treating Huntington's disease.

HbA1c [4] = conditions: DePaoli, et al. Diabetes Care 2014; cited from earlier work
[5] = subjects taking INT131 versus pioglitazone; DePaoli, et al. Diabetes Care 2014; cited from earlier work

## O=S(=O)(Nc1cc(Cl)c(Oc2cnc3ccccc3c2)c(Cl)c1)c1ccc(Cl)cc1Cl [INT131]
Adiponectin [1]; 0.5 mg, 1 mg, and 3 mg doses of INT131, p≤0.0408
  adiponectin levels, treatment comparison with pioglitazone 45 mg: statistically significant
Adiponectin [1]; 1 mg, 2 mg, and 3 mg doses of INT131, p≤0.0109
  adiponectin levels, treatment comparison with placebo: statistically significant
Adiponectin [1]; 2 mg group
  mean change in adiponectin from baseline to Week 24 with LOCF: 3.27 µg/mL
Adiponectin [1]; INT131 0.5 mg group
  mean change in adiponectin from baseline to Week 24 with LOCF: 0.56 µg/mL
Adiponectin [1]; INT131 1 mg group
  mean change in adiponectin from baseline to Week 24 with LOCF: 1.28 µg/mL
Adiponectin [1]; INT131 3 mg group
  mean change in adiponectin from baseline to Week 24 with LOCF: 3.83 µg/mL
Adiponectin [1]; INT131 at either 2 or 3 mg versus 45 mg pioglitazone
  upregulation of serum adiponectin levels compared with pioglitazone: greater upregulation
HbA1c [2]; 1, 2, and 3 mg doses of INT131, 24 weeks
  HbA1c levels as compared to placebo: statistically significant reduction
HbA1c [2]; 2 and 3 mg doses of INT131, 24 weeks
  reduction of HbA1c levels compared with 45 mg of pioglitazone: at least as well as 45 mg of pioglitazone
Adiponectin [3]; 0.1 mg INT131 daily for 14 days
  change in serum adiponectin levels Day 1 to Day 14 and over placebo: no significant change
Adiponectin [3]; 1 mg or 4 mg INT131 daily for 14 days
  change in serum adiponectin levels over placebo and from Day 1 to Day 14: significant change
R6/2 Huntington's mice
  Huntington's disease symptoms versus placebo: reduced Huntington's disease symptoms
  progression and development of Huntington's disease versus placebo: slows progression and development
  slowing progression or development and treating signs and symptoms of Huntington's disease versus another therapy: as effective, or more effective
HbA1c [4]
  reducing HbA1c levels compared with 45 mg of pioglitazone: equally efficacious
[5]
  side effects compared with pioglitazone: less edema, weight gain, and hemodilution

## CCc1ccc(CCOc2ccc(CC3SC(=O)NC3=O)cc2)nc1 (centres unmarked) [Pioglitazone, pioglitazone, reference compound]
Adiponectin [1]; pioglitazone 45 mg group
  mean change in adiponectin from baseline to Week 24 with LOCF: 2.96 µg/mL
